# Test results taken from PubChem BioAssay (NCI).
# Where “and” joins values, the source holds several entries; their conditions need not be identical. Equal values may be shown once.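 Compound exposure: 48 hours, 5 concentrations, 96-well plates. At the GI50, growth is halved. TGI: total growth inhibition.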
# Test system: MDA-MB-468 breast
# Test: NCI-60 cell line screen, 48 h
Structure (SMILES),GI50,TGI
CCC(C)n1ncn(-c2ccc(N3CCN(c4ccc(OCC5COC(Cn6cncn6)(c6ccc(Cl)cc6Cl)O5)cc4)CC3)cc2)c1=O (stereo not given),7.07 µM,> 100 µM
O=C(Nc1ccc(Cl)cc1F)c1ccccc1O,2.31 µM,6.42 µM
O=C(CNc1ccc(Cl)cc1)Nc1ccc(-c2nc3ccccc3s2)cc1,0.0375 µM,0.386 µM
N#CC(=C1C=CC(=NO)C=C1)c1ccccc1,0.289 µM,2.86 µM
O=C1NC(=O)C(c2cnc3ccccn23)=C1c1cn2c3c(cc(F)cc13)CN(C(=O)N1CCCCC1)CC2,4.47 µM,29.9 µM
CS(=O)c1nccc(-c2c(-c3ccc(F)c(OCc4ccc(F)cc4)c3)nc3sccn23)n1 (stereo not given),1.95 µM,4.33 µM
COc1ccc(CN2C(=O)/C(=C\C(=O)c3ccc(OCCN4CCCCC4)cc3)c3ccccc32)cc1,1.7 µM,3.68 µM
Clc1nc2ccccc2nc1CI,2.99 µM,8.67 µM
CCCCCCNC(=O)c1cc(NCc2cc(O)ccc2O)ccc1O,6.53 µM,28.9 µM
CN1CCN(CCOc2ccc(-c3cnc4c(-c5ccccc5F)cnn4c3)cc2)CC1,1.65 µM,3.36 µM
CCN(CC)c1ccc2c(c1)OC(N)=C(C#N)C2c1cc(OC)c2c(c1)OCO2 (stereo not given),0.0328 µM,2.97 µM
CCN(CC)CCOc1ccc(-c2nc3cc(Cl)ccc3s2)cc1,1.16 µM,2.46 µM
C=COCCCOc1ccccc1,> 100 µM,> 100 µM
COc1ccc(CCOc2cc3c(cc2OC)CCN(C(=O)NCc2cocn2)C3c2ccc(C)cc2C)cc1 (stereo not given),0.289 µM,1.3 µM
CC(C)=CC/C=C(/C)[C@H]1CC[C@]2(C)[C@@H]1CC[C@@H]1[C@@]3(C)CCCNC(C)(C)[C@@H]3CC[C@]12C,1.71 µM,3.25 µM
CCn1c(-c2nonc2N)nc2c(C#CC(C)(C)O)nc(OC[C@H](N)c3ccccc3)cc21,2.95 µM,6.73 µM
CC(C)CCN1c2nc(Nc3cc(F)c(O)c(F)c3)ncc2N(C)C(=O)C1C (stereo not given),5.02 µM,23.9 µM
Cn1c2ccccc2c2c3c(c4c5cc(Br)ccc5n(C)c4c21)C(=O)N(O)C3=O,0.213 µM,0.51 µM
COc1ccc(/C=C(/C(=O)N2CCN(c3ccccc3)CC2)c2cc(OC)c(OC)c(OC)c2)cc1O,0.575 µM,> 100 µM
O=C(Nc1nc2ccc(C(F)(F)F)cc2s1)c1cc(Cl)ccc1O,1.4 µM,13.7 µM
COc1ccc(C(C)=O)cc1N1C(=O)C2C(C1=O)C1(c3ccccc3)C(=O)C2(c2ccccc2)C(c2ccc(C)cc2)=C1c1ccc(C)cc1 (stereo not given),> 100 µM,> 100 µM
Cn1nc(N)c2cc([C@@H]3Nc4ccc5[nH]ncc5c4[C@H]4C5CCC(C5)[C@@H]34)ccc21 (stereo not given in full),0.235 µM,3.34 µM
N#Cc1c(NN)n(C2OC(CO)C(O)C2O)c2ncnc(N)c12 (stereo not given),0.0105 µM,0.0594 µM
Cc1nc2c(-c3cnc(N)nc3)nc(N3CCOCC3)nc2n1C(C)C,0.105 µM and 0.0734 µM,0.647 µM and 0.398 µM
CCN1CCN(C(c2ccc(C(F)(F)F)cc2)c2ccc3cccnc3c2O)CC1 (stereo not given),2.48 µM,6.48 µM
